# ChEMBL document CHEMBL1201862, “PubChem BioAssay data set” (2004)
# The source made the active and inactive calls.
# Legend:
# [1] = viability inhibitors of stage V gametocytes – luminescence, dose response (AID 1117278); type: functional, cell-based;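 further: gametocytes exposed to compound for 24 hours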
# [2] = viability loss in human Jurkat cells – cell-based, luminescence, cytotoxicity control for P. falciparum gametocyte viability project, dose response (AID 1117277); type: functional;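 further: potency reflects loss of cellular ATP meaning fewer viable cells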
# [3] = OVCAR-3 cell viability loss – plate reader, dry powder samples, PAX8 inhibitor project, dose response (AID 743044); type: functional, cell-based
# Paired box protein Pax-8 = Paired box protein Pax-8 (Homo sapiens, UniProt Q06710); test: PAX8 transcriptional activity inhibition in RMG-I – RMG-I cells, luciferase, cherry-pick, dose response (AID 687027); type: functional, cell-based;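 further: luciferase reporter driven by Pax8 target thyroperoxidase promoter measured by SteadyGlo luminescence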
# Paired box protein Pax-8, sequence (Q06710 whole entry): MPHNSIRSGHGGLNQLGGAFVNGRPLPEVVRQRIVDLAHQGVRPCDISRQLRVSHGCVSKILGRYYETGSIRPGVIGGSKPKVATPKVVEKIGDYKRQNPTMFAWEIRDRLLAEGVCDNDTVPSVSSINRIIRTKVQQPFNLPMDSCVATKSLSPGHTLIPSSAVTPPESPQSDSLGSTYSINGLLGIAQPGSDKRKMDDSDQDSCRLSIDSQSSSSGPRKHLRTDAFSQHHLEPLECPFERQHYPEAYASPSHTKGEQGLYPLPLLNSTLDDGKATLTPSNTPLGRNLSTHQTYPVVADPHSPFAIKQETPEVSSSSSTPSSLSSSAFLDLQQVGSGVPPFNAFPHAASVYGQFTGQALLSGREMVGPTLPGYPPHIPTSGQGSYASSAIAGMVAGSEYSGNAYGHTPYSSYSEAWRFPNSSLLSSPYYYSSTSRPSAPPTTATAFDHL
# [4] = IGROV1 cell killing – plate reader, dry powder samples, PAX8 inhibitor project, dose response (AID 743043); type: functional, cell-based; details: IGROV-1
# [5] = OVCAR8 cell viability loss – plate reader, dry powder samples, PAX8 project, dose response (AID 743197); type: functional, cell-based; details: OVCAR-8
# cells [6] = type: functional, cell-based
# cells [7] = type: functional, cell-based; remark: listed apart in the source
# [8] = target: Disintegrin and metalloproteinase domain-containing protein 17 (Homo sapiens, UniProt P78536); test: inhibition of ADAM17 substrate cleavage – biochemical, quenched FRET substrate, counter-screen for ADAM10 exosite inhibitor project, dose response (AID 743253)
# [9] = potency of ADAM10 substrate cleavage blockers – biochemical, QFRET, dose response (AID 743254);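 further: ADAM10 enzyme with the DM2 quenched FRET peptide as substrate; EDANS fluorescence gain as the protease cuts the substrate; inhibitor potency against ADAM10 proteolytic activity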
# [10] = Luminescence Cell-Based Dose Retest to Confirm Inhibitors of Cancer Stem Cells. [Related pubchem assays (depositor defined):AID2717, AID2721]; type: functional; details: Homo sapiens
# [11] = reduction of Shn3 3'UTR-driven luciferase in osteoblasts – cell-based, Clone20 osteoblasts, firefly luciferase, cherry-picked, dose response (AID 624132); type: functional;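 further: firefly luciferase luminescence from reporter carrying the Shn3 3'UTR in osteoblasts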
# [12] = loss of viability in HepG2 cells – cell-based, CellTiter-Glo, cherry-picked, cytotoxicity control for Shn3 inhibitor project, dose response (AID 624134); type: functional
# [13] = target: E3 ubiquitin-protein ligase Mdm2 (Homo sapiens, UniProt Q00987); test: MDM2-luc reporter signal enhancers, multi-concentration potency testing, MDM2 ubiquitin-protein ligase inhibitor program, whole-cell format, luminescence detection, 384-well microplate (AID 1394); type: functional;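 further: MDM2 E3 inhibitors raise luminescence so EC50 is for signal enhancement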
# E3 ubiquitin-protein ligase Mdm2, sequence (Q00987 whole entry): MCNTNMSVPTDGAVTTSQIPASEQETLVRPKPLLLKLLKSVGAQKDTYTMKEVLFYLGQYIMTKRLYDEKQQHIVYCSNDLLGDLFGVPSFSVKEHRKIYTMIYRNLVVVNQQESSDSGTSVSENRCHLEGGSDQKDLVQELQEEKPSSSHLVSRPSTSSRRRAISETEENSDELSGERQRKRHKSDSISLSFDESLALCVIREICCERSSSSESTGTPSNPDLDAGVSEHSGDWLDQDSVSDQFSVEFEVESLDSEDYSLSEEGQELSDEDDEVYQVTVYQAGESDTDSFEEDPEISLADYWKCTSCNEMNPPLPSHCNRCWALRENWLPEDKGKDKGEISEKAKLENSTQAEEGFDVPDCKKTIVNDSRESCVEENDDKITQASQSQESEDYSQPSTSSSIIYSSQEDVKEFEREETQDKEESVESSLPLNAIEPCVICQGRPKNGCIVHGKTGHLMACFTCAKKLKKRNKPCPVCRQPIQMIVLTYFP
# [14] = target: Sphingosine 1-phosphate receptor 2 (Homo sapiens, UniProt O95136); test: Dose Response Cell Based Assay for Agonists of the S1P2 Receptor. [Related pubchem assays: 729, 736, 843 ]; type: functional
# Sphingosine 1-phosphate receptor 2, sequence (O95136 whole entry): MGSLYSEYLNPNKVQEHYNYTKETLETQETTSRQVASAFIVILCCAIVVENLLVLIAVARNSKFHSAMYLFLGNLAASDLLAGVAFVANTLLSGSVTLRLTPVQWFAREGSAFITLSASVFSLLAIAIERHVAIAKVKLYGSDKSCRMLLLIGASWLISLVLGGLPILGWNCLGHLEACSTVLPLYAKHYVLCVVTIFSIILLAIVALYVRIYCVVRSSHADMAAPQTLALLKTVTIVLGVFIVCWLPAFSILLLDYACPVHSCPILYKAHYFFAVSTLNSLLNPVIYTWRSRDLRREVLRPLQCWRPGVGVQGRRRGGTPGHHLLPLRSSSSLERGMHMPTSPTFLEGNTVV
# [15] = target: Mitogen-activated protein kinase 10 (Homo sapiens, UniProt P53779); test: Dose response biochemical screening assay for inhibitors of c-Jun N-Terminal Kinase 3 (JNK3). [Related pubchem assays: 746 ]
# Mitogen-activated protein kinase 10, sequence (P53779 whole entry): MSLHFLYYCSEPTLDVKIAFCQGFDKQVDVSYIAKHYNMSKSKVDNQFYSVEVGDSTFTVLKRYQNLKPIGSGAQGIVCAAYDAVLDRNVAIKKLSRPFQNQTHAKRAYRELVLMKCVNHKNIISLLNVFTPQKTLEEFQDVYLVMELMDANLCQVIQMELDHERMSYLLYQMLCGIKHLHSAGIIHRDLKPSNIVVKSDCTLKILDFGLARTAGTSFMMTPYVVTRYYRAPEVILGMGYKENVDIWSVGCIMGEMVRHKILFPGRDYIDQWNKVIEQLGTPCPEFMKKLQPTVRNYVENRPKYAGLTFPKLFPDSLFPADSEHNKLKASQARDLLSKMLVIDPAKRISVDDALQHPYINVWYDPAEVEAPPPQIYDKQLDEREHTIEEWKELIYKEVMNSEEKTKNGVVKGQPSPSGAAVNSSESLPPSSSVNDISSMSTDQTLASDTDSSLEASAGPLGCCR
# [16] = A549 cell cytotoxicity, dose response, cytotoxicity control, plate reader, cherry-pick, antagonist series (AID 743412); type: functional, cell-based
# cells [17] = type: functional, cell-based; remark: listed apart in the source
# [18] = blockade of melanocortin 4 receptor signaling – cell-based, plate reader, cherry pick, counter-screen for LGR2 antagonist project, dose response (AID 743444); type: functional;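 further: transfected HEK 293 cells stimulated with alpha-MSH peptide; potency of inhibitors of the alpha-MSH evoked signal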
# [19] = target: T1, Nuclear receptor subfamily 0 group B member 1 (Homo sapiens, UniProt P51843); type: functional, cell-based;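 further: HEK293T cells transfected with SF-1 and DAX-1 plus StAR promoter luciferase reporter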
# T1 sequence (P51843 whole entry): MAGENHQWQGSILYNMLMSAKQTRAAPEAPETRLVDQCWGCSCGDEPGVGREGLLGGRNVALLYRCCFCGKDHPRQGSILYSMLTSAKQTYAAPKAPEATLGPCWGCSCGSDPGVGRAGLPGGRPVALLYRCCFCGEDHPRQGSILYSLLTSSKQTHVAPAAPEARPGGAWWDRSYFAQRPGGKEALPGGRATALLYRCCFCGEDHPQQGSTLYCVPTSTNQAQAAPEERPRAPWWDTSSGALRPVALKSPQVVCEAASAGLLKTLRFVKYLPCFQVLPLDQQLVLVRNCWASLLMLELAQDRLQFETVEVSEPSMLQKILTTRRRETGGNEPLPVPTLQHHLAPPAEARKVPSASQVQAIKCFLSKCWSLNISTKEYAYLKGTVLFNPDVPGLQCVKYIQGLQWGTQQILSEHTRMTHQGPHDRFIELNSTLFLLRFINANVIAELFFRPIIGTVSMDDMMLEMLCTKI
# [20] = blockers of bursicon-stimulated LGR2 cAMP reporter – cell-based, HEK293, CRE-luciferase reporter, cherry pick, set 2, dose response (AID 743343); type: functional;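 further: transfected cells were stimulated with diluted bursicon conditioned medium after compound addition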
# [21] = toxicity toward HepG2 liver cells – cell-based, plate reader, cherry-pick, antagonist series, cytotoxicity control, dose response (AID 743416); type: functional
# [22] = IC50 of Artemis nuclease activity blockers – biochemical, fluorescence intensity, dose response (AID 720701); type: functional;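 further: Artemis endonuclease enzyme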
# H9c2 = test: cells; type: functional, cell-based; details: Rattus norvegicus, H9c2, Myocardium;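 further: confirmatory concentration-response retest of ultra-high-throughput screening hits for modulation of myocardial damage; cell death induced by hydrogen peroxide oxidative stress; compound pretreatment for 60 min then peroxide exposure for 2 h; potency is for protecting the cells against peroxide damage rather than for killing them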
# [23] = target: Fructose-bisphosphate aldolase (Mycobacterium tuberculosis, UniProt P9WQA3); test: Fluorescence-based biochemical high throughput dose response assay for inhibitors of the fructose-bisphosphate aldolase (FBA) of M. tuberculosis.; type: functional
# Fatty acid synthase [24] = target: T2, Fatty acid synthase (Homo sapiens, UniProt P49327); test: inhibition of human FAS-TE enzyme activity – biochemical, endpoint fluorescence intensity, uHTS hits, dose response (AID 624327); type: functional;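 further: fluorescence from hydrolysis of an O-methyl fluorescein acyl ester substrate by the enzyme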
# T2 sequence (P49327 whole entry): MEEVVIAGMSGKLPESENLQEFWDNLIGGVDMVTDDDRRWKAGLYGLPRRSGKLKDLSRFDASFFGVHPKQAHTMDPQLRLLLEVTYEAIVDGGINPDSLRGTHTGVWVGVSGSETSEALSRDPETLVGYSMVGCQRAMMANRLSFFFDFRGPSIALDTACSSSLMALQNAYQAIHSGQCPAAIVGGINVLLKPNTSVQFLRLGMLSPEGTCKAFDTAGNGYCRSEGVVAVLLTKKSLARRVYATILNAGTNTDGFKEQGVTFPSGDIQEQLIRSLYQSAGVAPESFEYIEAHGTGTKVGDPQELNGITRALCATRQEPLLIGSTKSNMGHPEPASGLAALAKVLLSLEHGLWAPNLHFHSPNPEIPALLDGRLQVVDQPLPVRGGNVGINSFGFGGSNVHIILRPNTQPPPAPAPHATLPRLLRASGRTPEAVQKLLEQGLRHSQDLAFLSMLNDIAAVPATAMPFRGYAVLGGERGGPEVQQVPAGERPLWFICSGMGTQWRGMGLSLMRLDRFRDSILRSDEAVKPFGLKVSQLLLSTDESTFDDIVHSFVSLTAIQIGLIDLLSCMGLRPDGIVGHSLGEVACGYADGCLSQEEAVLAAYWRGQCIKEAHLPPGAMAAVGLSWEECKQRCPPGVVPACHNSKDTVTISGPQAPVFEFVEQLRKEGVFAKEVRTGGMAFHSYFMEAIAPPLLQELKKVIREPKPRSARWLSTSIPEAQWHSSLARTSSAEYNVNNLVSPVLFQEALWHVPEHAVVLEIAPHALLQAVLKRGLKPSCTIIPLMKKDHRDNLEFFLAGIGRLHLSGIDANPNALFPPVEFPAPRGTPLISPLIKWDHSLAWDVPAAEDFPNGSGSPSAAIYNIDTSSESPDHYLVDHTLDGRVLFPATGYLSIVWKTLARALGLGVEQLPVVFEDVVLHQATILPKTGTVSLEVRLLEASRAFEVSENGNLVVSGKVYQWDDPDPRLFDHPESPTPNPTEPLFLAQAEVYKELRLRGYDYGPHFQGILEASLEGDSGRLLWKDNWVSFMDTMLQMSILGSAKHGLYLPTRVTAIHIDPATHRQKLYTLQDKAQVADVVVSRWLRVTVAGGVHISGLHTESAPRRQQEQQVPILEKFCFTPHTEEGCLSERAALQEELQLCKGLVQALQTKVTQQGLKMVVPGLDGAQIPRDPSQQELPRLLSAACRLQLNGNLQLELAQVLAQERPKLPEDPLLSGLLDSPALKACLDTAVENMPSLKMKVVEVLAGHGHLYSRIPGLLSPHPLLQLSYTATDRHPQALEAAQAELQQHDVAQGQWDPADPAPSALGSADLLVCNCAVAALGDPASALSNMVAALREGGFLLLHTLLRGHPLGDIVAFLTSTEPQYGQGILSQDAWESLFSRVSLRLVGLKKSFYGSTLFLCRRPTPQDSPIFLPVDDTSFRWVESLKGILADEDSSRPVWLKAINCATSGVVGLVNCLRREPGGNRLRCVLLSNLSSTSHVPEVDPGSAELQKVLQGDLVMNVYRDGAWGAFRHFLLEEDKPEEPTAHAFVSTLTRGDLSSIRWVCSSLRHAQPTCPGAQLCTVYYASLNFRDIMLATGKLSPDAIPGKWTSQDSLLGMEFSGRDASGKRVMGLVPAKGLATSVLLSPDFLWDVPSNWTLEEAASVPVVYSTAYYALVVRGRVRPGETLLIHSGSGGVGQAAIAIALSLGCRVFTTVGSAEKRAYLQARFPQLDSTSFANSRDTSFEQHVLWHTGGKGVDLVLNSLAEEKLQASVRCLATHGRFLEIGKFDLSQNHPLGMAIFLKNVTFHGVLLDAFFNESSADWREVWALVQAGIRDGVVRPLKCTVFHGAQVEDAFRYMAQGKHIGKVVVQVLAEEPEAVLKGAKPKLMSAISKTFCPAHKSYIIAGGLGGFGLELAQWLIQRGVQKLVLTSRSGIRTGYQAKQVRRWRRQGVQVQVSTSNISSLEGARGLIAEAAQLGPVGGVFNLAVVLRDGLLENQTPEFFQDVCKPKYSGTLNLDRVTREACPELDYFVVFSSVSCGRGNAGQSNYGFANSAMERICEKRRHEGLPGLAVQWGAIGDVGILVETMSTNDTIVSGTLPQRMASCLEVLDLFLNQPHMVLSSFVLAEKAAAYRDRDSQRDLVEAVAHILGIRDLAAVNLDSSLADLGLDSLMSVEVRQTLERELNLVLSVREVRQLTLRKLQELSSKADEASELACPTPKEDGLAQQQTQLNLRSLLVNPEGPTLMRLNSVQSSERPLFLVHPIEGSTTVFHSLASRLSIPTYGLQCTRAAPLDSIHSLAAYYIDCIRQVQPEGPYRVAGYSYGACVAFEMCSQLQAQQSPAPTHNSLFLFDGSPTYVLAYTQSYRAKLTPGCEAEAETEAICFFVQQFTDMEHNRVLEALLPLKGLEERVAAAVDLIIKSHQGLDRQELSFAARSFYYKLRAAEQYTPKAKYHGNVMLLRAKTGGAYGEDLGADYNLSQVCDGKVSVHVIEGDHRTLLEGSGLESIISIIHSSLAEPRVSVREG
# [25] = HGIII-sPLA2 enzyme inhibition potency – biochemical, QFRET, IC50, dose response (AID 743457);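 further: green fluorescence rise as the enzyme cleaves BODIPY PC-A2 in liposomes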
# Nonstructural protein 1 = Nonstructural protein 1 (Influenza A virus, UniProt Q194T2); type: functional, Influenza A virus (A/California/07/2009(H1N1))
# Fatty acid synthase [26] = target: T2, Fatty acid synthase; test: inhibition of human FAS-TE enzyme activity – biochemical, kinetic fluorescence intensity, dose response (AID 624326); type: functional;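 further: rate of fluorescence rise from hydrolysis of a fluorogenic O-methyl fluorescein ester substrate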
# [27] = viability loss in HeLa cells – cytotoxicity control for MgcRacGAP inhibitor project, dose response (AID 624300); type: functional
# [28] = target: Tyrosyl-DNA phosphodiesterase 2 (Homo sapiens, UniProt O95551); test: potency against TDP2 phosphodiesterase activity – biochemical, epi absorbance, IC50, dose response (AID 743297)
# [29] = target: T3, Rac GTPase-activating protein 1 (Homo sapiens, UniProt Q9H0H5); test: blockers of MgcRacGAP-driven Rac1 GTP hydrolysis – biochemical, ADP Hunter fluorescence, primary and confirmatory, confirmation (AID 624330); type: functional
# T3 sequence (Q9H0H5 whole entry): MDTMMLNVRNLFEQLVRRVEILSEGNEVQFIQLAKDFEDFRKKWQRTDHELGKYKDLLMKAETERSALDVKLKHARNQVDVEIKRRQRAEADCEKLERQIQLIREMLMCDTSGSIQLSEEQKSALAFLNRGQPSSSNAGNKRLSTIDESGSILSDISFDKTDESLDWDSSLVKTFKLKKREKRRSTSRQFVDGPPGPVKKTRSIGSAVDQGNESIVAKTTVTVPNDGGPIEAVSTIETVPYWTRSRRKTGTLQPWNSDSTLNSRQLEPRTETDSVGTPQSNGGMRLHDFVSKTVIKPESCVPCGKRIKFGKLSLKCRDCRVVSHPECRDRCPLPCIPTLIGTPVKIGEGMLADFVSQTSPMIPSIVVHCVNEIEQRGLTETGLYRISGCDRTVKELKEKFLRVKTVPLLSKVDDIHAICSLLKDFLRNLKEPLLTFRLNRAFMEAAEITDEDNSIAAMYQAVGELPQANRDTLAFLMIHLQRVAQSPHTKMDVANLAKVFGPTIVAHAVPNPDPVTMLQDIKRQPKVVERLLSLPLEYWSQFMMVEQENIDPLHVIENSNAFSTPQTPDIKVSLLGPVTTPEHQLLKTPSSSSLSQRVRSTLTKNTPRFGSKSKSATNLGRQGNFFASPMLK
# [30] = microbe, parasite or virus in culture; type: functional; details: Mycobacterium tuberculosis
# Protein skinhead-1 = target: T4, Protein skinhead-1 (Caenorhabditis elegans, UniProt P34707); type: functional
# T4 sequence (P34707 whole entry): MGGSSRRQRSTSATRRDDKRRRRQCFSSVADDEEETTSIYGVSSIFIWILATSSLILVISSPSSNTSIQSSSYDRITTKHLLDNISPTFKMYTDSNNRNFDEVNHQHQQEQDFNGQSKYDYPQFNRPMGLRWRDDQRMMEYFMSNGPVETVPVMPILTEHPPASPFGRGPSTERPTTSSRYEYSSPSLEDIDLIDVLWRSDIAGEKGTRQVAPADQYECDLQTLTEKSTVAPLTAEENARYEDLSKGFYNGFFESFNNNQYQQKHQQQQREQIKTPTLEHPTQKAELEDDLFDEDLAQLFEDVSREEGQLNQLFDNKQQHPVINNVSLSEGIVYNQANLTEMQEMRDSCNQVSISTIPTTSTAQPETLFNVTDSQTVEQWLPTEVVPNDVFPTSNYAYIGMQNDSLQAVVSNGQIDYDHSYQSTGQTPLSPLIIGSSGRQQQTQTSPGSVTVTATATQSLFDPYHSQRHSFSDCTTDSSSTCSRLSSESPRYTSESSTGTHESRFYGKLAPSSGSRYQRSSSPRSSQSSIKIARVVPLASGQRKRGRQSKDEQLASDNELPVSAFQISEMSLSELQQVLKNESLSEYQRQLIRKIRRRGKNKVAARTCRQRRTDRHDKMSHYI
# [31] = target: T5, Runt-related transcription factor 1/Core-binding factor subunit beta (Homo sapiens, UniProt Q01196+Q13951); test: Runt domain/CBFb-SMMHC interaction disruptors – biochemical, TR-FRET (AID 1438); type: protein assay
# T5 sequence (Q01196 whole entry, the tested form may be a part): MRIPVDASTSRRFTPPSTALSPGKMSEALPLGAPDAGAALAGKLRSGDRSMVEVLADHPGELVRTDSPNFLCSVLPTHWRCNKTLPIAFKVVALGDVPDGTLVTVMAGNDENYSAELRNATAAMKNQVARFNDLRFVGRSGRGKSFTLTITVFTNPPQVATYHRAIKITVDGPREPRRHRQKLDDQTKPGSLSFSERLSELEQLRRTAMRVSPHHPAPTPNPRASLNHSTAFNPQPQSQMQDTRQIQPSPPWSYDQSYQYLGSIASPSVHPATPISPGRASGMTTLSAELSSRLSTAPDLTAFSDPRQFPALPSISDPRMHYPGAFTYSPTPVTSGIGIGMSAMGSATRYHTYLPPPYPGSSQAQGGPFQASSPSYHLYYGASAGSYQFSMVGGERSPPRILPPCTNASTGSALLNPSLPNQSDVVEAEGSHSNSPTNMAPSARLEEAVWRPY
# T5 sequence (Q13951 whole entry, the tested form may be a part): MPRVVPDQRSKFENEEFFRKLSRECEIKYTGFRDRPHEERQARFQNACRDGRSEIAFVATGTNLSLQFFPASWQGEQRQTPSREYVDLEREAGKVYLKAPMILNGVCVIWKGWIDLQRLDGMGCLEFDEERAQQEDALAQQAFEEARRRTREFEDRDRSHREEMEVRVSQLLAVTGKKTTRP
# [32] = target: T5, Runt-related transcription factor 1/Core-binding factor subunit beta; test: disruptors of Runt domain/CBFb-SMMHC interaction – biochemical, FRET, Cerulean-Runt, Venus-CBFb-SMMHC, uHTS, […] (AID 1434); type: protein assay
smiles,measurement,setting,value
Cc1ccc(CNC(=O)C2CCN(S(=O)(=O)N3CCCCC3)CC2)cc1,IC50,[1],> 109 µM (inactive)
same,IC50,[2],> 83.4 µM (inactive)
C[C@H]1CCCCO[C@@H](CN(C)Cc2ccccc2)[C@@H](C)CN([C@@H](C)CO)C(=O)c2cc(NC(=O)Nc3ccc(C(F)(F)F)cc3)ccc2O1,AC50,[3],60.4 µM (active)
same,AC50,Paired box protein Pax-8,11.6 µM (active)
same,AC50,[4],48.1 µM (active)
same,AC50,[5],42 µM (active)
CCOC(=O)C1(C)NC(c2ccc(OC)cc2OC)C2C(=O)N(CC)C(=O)C21 (centres undefined),EC50,cells [6],> 350 µM (not active)
same,EC50,cells [7],> 350 µM (not active)
same,IC50,[1],> 109 µM (inactive)
same,IC50,[2],> 83.3 µM (inactive)
CCOc1ccc(-n2c(SCC(=O)Nc3ccc(S(=O)(=O)Nc4nccs4)cc3)nnc2-c2ccc(C(C)(C)C)cc2)cc1,IC50,[8],> 69.5 µM (inactive)
same,IC50,[9],9.71 µM (active)
C[C@@H]1CN([C@@H](C)CO)C(=O)c2cc(NC(=O)Nc3ccc(F)cc3)ccc2O[C@@H]1CN(C)Cc1ccc(Oc2ccccc2)cc1,AC50,[10],2.95 µM (active)
same,AC50,[11],9.38 µM (active)
same,IC50,[8],> 69.5 µM (inactive)
same,AC50,[12],18.7 µM (active)
same,IC50,[9],> 2.58 µM (active)
COc1ccc(S(=O)(=O)Nc2ccc3c(c2)C(=O)N([C@H](C)CO)C[C@@H](C)[C@H](CN(C)S(=O)(=O)c2ccc(Cl)cc2)OCCCC[C@H](C)O3)cc1,AC50,[3],33.5 µM (active)
same,AC50,Paired box protein Pax-8,3.99 µM (active)
same,AC50,[4],34.6 µM (active)
same,AC50,[5],> 70 µM (inactive)
O=C1CN(c2cc(Cl)cc(Cl)c2)C(=O)CN1/N=C/c1cccnc1,EC50,[13],0.01 µM (not active)
O=S(=O)(Cc1ccc(Cl)cc1)NCC1CCCO1 (centres undefined),EC50,[14],> 50 µM (not active)
COc1ccc(OCC(=O)N/N=C(\C)CC(=O)Nc2cccc([N+](=O)[O-])c2)cc1,EC50,[13],15.7 µM (not active)
COc1ccc(NC(=O)CCCCn2c(=O)[nH]c3ccccc3c2=O)cc1,IC50,[15],55.1 µM (not active)
CN(C)c1ccc(NC(=O)c2cnsn2)cc1,AC50,[16],> 52 µM (inactive)
same,IC50,cells [17],> 67.5 µM (inactive)
same,AC50,[18],6.9 µM (active)
same,IC50,[19],> 2.5 µM (active)
same,AC50,[20],4.26 µM (active)
same,AC50,[21],> 52 µM (inactive)
CCCCCCn1cnc2c(c1=O)c1nc3ccccc3nc1n2/N=C/c1ccco1,IC50,[22],> 20 µM (inactive)
same,IC50,H9c2,19.1 µM (active)
COc1cccc(CNC(=O)CN(c2cc(C)cc(C)c2)S(=O)(=O)c2c(C)noc2C)c1,EC50,[14],> 50 µM (not active)
O=C(Nc1nnc(-c2ccncc2)s1)C1CCCO1 (centres undefined),IC50,[23],1.09 µM (active)
CCOC(=O)c1cc2c(=Cc3ccc(N(C)C)cc3)c3ccccc3n2[n+]1C,IC50,Fatty acid synthase [24],12.9 µM (active)
same,IC50,[25],36.1 µM (inactive)
same,IC50,Nonstructural protein 1,12 µM (active)
same,IC50,Fatty acid synthase [26],8.42 µM (active)
same,CC50,[27],100 µM (active)
same,IC50,[28],> 128 µM (inactive)
same,IC50,[29],42.5 µM (active)
COc1cc(NC(=O)c2ccc(COc3ccccc3Br)o2)cc(OC)c1OC,IC50,[15],33 µM (not active)
same,CC50,[30],> 40 µM (active)
N=c1c(C(=O)NCc2ccccc2)cc2c(=O)n3ccccc3nc2n1Cc1ccco1,IC50,[22],> 20 µM (inactive)
same,IC50,Protein skinhead-1,> 100 µM (inactive)
same,IC50,[31],36.6 µM (active)
same,IC50,[32],2.34 µM (active)
CN1CCN(C(=O)C2Cc3c(-c4ccc5c(c4)OCO5)ccnc3O2)CC1 (centres undefined),IC50,[23],1.73 µM (active)
